Bridge positions count the residues as written; N and C are the ends. Peptide text beside a SMILES is read from it. I, II: the chains in the order shown.
How the values were obtained:
[1] = tested on: mouse vas deferens from NOP(−/−) mice; test: Electrically stimulated mouse vas deferens bioassay, NOP(−/−) tissues; settings: mVD from CD-1 NOP(−/−) mice; 5 experiments
Method: (§1) This study was approved by the Animal Welfare Body of the University of Ferrara and by the Italian Ministry of Health (authorization number CBCC2.N.BXI). Experiments were performed on an isolated mouse vas deferens. All experiments were conducted with mice bred and housed in the University of Ferrara’s animal facility under specific pathogen-free conditions (SPF). All mice were housed in cages with individual ventilation, with a constant temperature of 21 °C, 60% humidity, and a 12 h light/dark cycle. Food and water were provided ad libitum. CD-1 NOP(+/+) and CD-1 NOP(−/−) male mice, aged 9 to 12 months, were used. Animals were sacrificed on the day of the experiment with CO2 overdose. Bioassay experiments were performed as previously described. The tissues were suspended in 5 mL organ bath containing Krebs solution (NaCl 118.5 […]). The Krebs solution was oxygenated with 95% O2 and 5% CO2 and the temperature set at 33 °C with a resting tension of 0.3 g applied to the tissues. Tissues were stimulated through two platinum electrodes with a supramaximal rectangular pulse of 1 ms duration, 0.05 Hz frequency, and 80 V of amplitude. The electrically evoked contractions were measured isotonically by means of Basile strain gauge transducers (Basile, IT) and a recorder with a Power Lab 8 instrument (ADInstruments, CO, U.S.). Following an equilibration period of approximately 60 min, the contractions induced by electrical field stimulation were stable. At this time, cumulative concentration response curves were carried out.
Concentration-response curves to agonists were analyzed by a four-parameter logistic nonlinear regression model: Effect = baseline + (E max – baseline)/(1 + 10^((logEC50–log[ligand])slope)). […] Experimental data were expressed as mean ± sem of at least 5 experiments. Potency values were expressed as the mean and CL95%. In vitro E max values were analyzed by one-way ANOVA, while in vivo latency data were evaluated by one-way ANOVA followed by Dunnett’s post hoc test. […]

[2] = tested on: mouse vas deferens from NOP(+/+) mice; test: Electrically stimulated mouse vas deferens bioassay, NOP(+/+) tissues
Method: as §1
Concentration-response curves to agonists were analyzed by a four-parameter logistic nonlinear regression model: Effect = baseline + (E max – baseline)/(1 + 10^((logEC50–log[ligand])slope)). […] Experimental data were expressed as mean ± sem of at least 5 experiments. Potency values were expressed as the mean and CL95%. In vitro E max values were analyzed by one-way ANOVA, while in vivo latency data were evaluated by one-way ANOVA followed by Dunnett’s post hoc test. The proportion of mice losing the righting reflex was compared by Fisher’s exact test performed on raw data. GraphPad Prism 10.0 software was used for all of the analyses. The terminology employed is consistent with the International Union of Basic and Clinical Pharmacology (IUPHAR) recommendations. ,

In the case of `C[C@H](NC(=O)CNC(=O)[C@@H](NC(=O)[C@H](Cc1ccccc1)NC(=O)CNC(=O)CNC(=O)[C@@H](N)Cc1ccccc1)[C@@H](C)O)C(=O)N[C@@H](CCCNC(=N)N)C(=O)N[C@@H](CCCCN)C(=O)N[C@@H](CO)C(=O)N[C@@H](C)C(=O)N[C@@H](CCCNC(=N)N)C(=O)N[C@@H](CCCCN)C(=O)N[C@@H](CSSC[C@H](NC(=O)[C@H](CCCCN)NC(=O)[C@H](CCCNC(=N)N)NC(=O)[C@H](C)NC(=O)[C@H](CO)NC(=O)[C@H](CCCCN)NC(=O)[C@H](CCCNC(=N)N)NC(=O)[C@H](C)NC(=O)CNC(=O)[C@@H](NC(=O)[C@H](Cc1ccccc1)NC(=O)CNC(=O)CNC(=O)[C@@H](N)Cc1ccccc1)[C@@H](C)O)C(=O)N[C@@H](C)C(=O)N[C@@H](CC(N)=O)C(=O)N[C@@H](CCC(N)=O)C(N)=O)C(=O)N[C@@H](C)C(=O)N[C@@H](CC(N)=O)C(=O)N[C@@H](CCC(N)=O)C(N)=O` [1h, [[Cys^14]N/OFQ-NH2]2] (I: H-FGGFTGARKSARKCANQ-NH2 / II: H-FGGFTGARKSARKCANQ-NH2; disulfide I:14-II:14; N-terminus assumed), the “effect in mVD tissues from NOP(−/−) mice (in words)” value [1] is reported as “no effect”, the “potency (pEC50) for inhibition of electrically induced contractions” value ([2]; mVD from CD-1 NOP(+/+) mice, 33 °C, mean (CL95%), 5 experiments) is reported as 6.79 (6.02–7.56) and the “decrease in mVD potency compared to N/OFQ” value ([2]; mVD, vs N/OFQ) is reported as “approximately 3 fold”. For the same molecule, the “kinetics of action in mVD (in words)” value ([2]; onset and reversibility upon washout) was “fully and rapidly reversible upon washout”.
